Assay type in all cases: cell-based
In one data set the target is T1, human TLR5 (Homo sapiens, UniProt O60602).
T1 construct: host or cells: HEK293
Description: NF-κB activation (secreted alkaline phosphatase reporter) in HEK293 cells expressing human TLR5. Conditions: HEK293/hTLR5 cell line; polynucleotide final concentration 10 μg/mL; 16-20 hours. How it is done: (§1) Toll-like receptors (TLR) are known to interact with a number of natural and synthetic molecules that can function as immune adjuvants. Examples of these molecules are Poly (I:C) polynucleotides, lipopolysaccharide and CpG-containing polynucleotides. The interaction of non-DNA base-containing polynucleotides (SEQ ID NOs: 1-3) to interact with TLR and induce down-stream signaling was tested by assessing NF-κB activation in HEK293 cells expressing human TLR2, 3, 4, 5, 7, 8 and 9. TLR engagement was determined by measurement of secreted alkaline phosphatase, under the control of a reporter inducible by NF-κB. Appropriate positive controls were used for each TLR. The non-DNA base-containing polynucleotides were dissolved in sterile water at a concentration of 100 μg/mL, and used at a final concentration of 10 μg/mL. HEK293 cells containing the appropriate TLR and NF-κB reporting system (InvivoGen, San Diego, Calif., USA) were placed in wells of 96 well plates (25,000-50,000 cells, in a final volume of 200 μL medium designed for the detection of NF-κB induced secreted alkaline phosphatase expression), and incubated with non-DNA base-containing polynucleotides or positive controls for 16-20 hours. TLR activating activity was determined by measurement of absorbance at 650 nm wavelength using a Coulter AD340C absorbance detector. The results shown are expressed as Optical Density (OD).

The next data set addresses T2, human TLR7 (Homo sapiens, UniProt Q9NYK1).
T2 construct: host or cells: HEK293
T2 sequence (Q9NYK1 27-1049): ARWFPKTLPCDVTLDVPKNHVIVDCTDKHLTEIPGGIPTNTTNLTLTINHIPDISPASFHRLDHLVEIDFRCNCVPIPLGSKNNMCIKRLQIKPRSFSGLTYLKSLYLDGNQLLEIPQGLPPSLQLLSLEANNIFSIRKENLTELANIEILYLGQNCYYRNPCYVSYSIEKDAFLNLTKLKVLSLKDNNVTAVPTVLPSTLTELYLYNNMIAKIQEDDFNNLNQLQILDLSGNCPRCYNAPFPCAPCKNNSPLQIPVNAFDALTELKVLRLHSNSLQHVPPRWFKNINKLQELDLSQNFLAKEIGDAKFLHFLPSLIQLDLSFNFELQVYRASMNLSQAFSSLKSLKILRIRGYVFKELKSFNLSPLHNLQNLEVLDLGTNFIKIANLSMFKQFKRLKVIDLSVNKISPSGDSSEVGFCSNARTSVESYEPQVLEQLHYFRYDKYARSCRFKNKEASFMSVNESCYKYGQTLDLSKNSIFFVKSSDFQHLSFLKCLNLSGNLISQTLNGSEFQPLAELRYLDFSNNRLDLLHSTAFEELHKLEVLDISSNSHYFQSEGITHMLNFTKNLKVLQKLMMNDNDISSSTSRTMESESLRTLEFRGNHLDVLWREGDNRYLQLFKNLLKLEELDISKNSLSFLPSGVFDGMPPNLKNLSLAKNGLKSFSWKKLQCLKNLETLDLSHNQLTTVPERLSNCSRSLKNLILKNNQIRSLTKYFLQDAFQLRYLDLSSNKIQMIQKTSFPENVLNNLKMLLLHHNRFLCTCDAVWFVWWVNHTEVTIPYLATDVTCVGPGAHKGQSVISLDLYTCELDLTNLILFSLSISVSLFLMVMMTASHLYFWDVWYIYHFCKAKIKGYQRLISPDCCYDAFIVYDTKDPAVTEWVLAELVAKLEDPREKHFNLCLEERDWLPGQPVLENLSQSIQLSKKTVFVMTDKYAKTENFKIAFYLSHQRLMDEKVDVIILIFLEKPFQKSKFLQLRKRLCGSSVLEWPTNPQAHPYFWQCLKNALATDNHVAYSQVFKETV
Briefly: NF-κB activation (secreted alkaline phosphatase reporter) in HEK293 cells expressing human TLR7. Conditions: HEK293/TLR7 cell line; polynucleotide final concentration 10 μg/mL; 16-20 hours. How it is done: as §1, with “The interaction of non-DNA base-containing polynucleotides (SEQ ID NOs: 1-3) to interact with TLR and induce down-stream signaling was tested by assessing NF-κB activation in HEK293 cells expressing human TLR2, 3, 4, 5, 7, 8 and 9.” left out

The next data set has as its system NF-κB control cells. Description: NF-κB reporter control cells (secreted alkaline phosphatase). Conditions: polynucleotide final concentration 10 μg/mL, 16-20 hours. How it is done: as §1
For another data set, the system named is human PBMC. Briefly: Induction of cytokines from human PBMC (ELISA cytokine capture assay). The following applies: PBMC of 3 healthy adults, 48 h; increase two-fold that of background control; SEQ ID NOs 1-3 100 μg/mL, CpG 2006 and MCC 1-100 μg/mL, LPS 10 μg/mL. From the text:
A number of immune adjuvants are known to be capable of eliciting cytokines from human PBMC cells. Examples of such adjuvants are alum, lipopolysaccharide, monophosphoryl lipid A, CpG-containing polynucleotides and non-CpG-containing ODN's, as well as mycobacterial cell wall-DNA complex (MCC). […] PBMC were isolated from whole blood using standard Ficoll-Paque (GE Healthcare Life Sciences, Baie d'Urfé, QC, Canada) gradient centrifugation, and placed in tissue culture plates at a concentration of 10^6 cells/mL (total volume: 1 mL in RPMI 1640 medium containing 10% heat-inactivated FBS, both from Wisent, St-Bruno, QC, Canada) and 50 μg/mL gentamycin sulfate (Sigma-Aldrich Canada, Oakville, ON, Canada). SEQ ID NOs: 1, 2 or 3 were added to give a final concentration of 100 μg/mL, and the cells were cultivated for 48 h. Cytokines (IL-1β, IL-2, IL-6, IL-10 and IL-12p40) in the supernatant at the end of incubation were determined by ELISA using a cytokine capture assay process (Biosource, Camarillo, Calif.). SEQ ID NO: 32 CpG 2006 ODN (1-100 μg/mL, 5′-[…]-3′, […]), MCC (1-100 μg/mL) and LPS (10 μg/mL) were used as positive controls.

Results on 3 substances are retold here after patent US20110111016A1, “NON-DNA BASE-CONTAINING POLYNUCLEOTIDE COMPOSITIONS AND THEIR USE FOR THE MODULATION OF IMMUNE RESPONSES” (priority 2009, published 2011).

T1 sequence (O60602 21-858): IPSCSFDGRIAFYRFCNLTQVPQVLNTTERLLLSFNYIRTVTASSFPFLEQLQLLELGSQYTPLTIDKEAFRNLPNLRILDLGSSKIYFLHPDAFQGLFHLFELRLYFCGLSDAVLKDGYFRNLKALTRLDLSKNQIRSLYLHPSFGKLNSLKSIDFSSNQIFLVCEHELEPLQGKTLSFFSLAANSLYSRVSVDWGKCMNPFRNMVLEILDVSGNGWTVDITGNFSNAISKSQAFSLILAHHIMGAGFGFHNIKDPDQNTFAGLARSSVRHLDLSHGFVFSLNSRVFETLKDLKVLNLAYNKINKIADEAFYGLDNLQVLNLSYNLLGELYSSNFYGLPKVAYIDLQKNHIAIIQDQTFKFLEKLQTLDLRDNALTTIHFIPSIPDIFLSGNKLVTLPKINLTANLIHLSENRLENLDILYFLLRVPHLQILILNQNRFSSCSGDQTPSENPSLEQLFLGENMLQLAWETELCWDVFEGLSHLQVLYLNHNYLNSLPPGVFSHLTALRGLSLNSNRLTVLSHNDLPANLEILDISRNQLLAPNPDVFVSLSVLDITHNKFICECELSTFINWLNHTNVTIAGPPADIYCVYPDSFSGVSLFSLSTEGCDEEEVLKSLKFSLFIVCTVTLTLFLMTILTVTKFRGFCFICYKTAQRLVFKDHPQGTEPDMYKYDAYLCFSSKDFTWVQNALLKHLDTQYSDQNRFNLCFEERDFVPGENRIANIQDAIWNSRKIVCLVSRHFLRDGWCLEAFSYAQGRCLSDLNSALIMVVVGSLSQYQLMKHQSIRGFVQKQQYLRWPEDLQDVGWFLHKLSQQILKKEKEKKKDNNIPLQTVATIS

Regarding “NebGGTGNeb (DNA NGGTGN; Nebularine at both ends, sugar and linkages not given here, further chemistry not given here) [SEQ ID NO: 1, 5′-OH, 3′-OH non-DNA base-containing polynucleotide]”, in the data set with human TLR5, the “TLR activation, Optical Density at 650 nm, hTLR5” value (“TLR activation … hTLR5” below) turned out to be 0.158. Also, the “TLR activation, Optical Density at 650 nm, hHTR7” value (from here on “TLR activation … hHTR7”) in the data set with human TLR7 is on record as 0.097. Besides, the “Optical Density at 650 nm, NF-κB control cells” value with NF-κB control cells was found to be 0.078. In the data set with human PBMC, the “Number of individuals responding, IL-1β” value is reported as 3/3; the “Number of individuals responding, IL-2” value is recorded as 0/3; the “Number of individuals responding, IL-6” value is 3/3; the “Number of individuals responding, IL-10” value is recorded as 0/3. Moreover, the “Number of individuals responding, IL-12p40” value (shortened to “Number … IL-12p40”) in the data set on human PBMC was 3/3.
As for UUGTUU [SEQ ID NO: 2], the “TLR activation … hTLR5” value at human TLR5 is 0.143. Besides, the “TLR activation … hHTR7” value on human TLR7 is on record as 0.090. Also, the “Optical Density at 650 nm, NF-κB control cells” value in the data set on NF-κB control cells is given as 0.076. Also, in the data set on human PBMC, the “Number of individuals responding, IL-1β” value is 0/3; the “Number of individuals responding, IL-2” value is listed as 0/3; the “Number of individuals responding, IL-6” value is recorded as 1/3; the “Number of individuals responding, IL-10” value is on record as 0/3. Besides, in the data set on human PBMC, the “Number … IL-12p40” value is given as 3/3.
IIGTII [SEQ ID NO: 3]: the “TLR activation … hTLR5” value at human TLR5 is recorded as 0.155. Also, the “TLR activation … hHTR7” value on human TLR7 turned out to be 0.093. Also, the “Optical Density at 650 nm, NF-κB control cells” value in the data set with NF-κB control cells was 0.074. For the same substance, in the data set on human PBMC, the “Number of individuals responding, IL-1β” value is on record as 0/3; the “Number of individuals responding, IL-2” value is 0/3; the “Number of individuals responding, IL-6” value is recorded as 3/3; the “Number of individuals responding, IL-10” value is on record as 0/3. Besides, in the data set with human PBMC, the “Number … IL-12p40” value is 0/3.
